Data as given in patent US12640239B2, “Functional biomarkers for statin therapy in age-related macular degeneration (AMD)” (APELIOTUS TECHNOLOGIES, INC., priority 2017, dated 2026).

Tests used:
[1] = test system: patient having intermediate AMD; assay: Patient self-report of perceived changes in visual function during statin treatment; assay type: in vivo, human
Excerpt: The patient was asked to report any perceived changes in visual function during the course of the treatment.
The patient was asked to report any perceived changes in visual function during the course of the treatment. […] The self-reported improvement was confirmed at months 15 and 22 of treatment. […] The resolution of the drusen was confirmed by fundus photography and optical coherence tomography (OCT) imaging.

[2] = test system: AMD patients; assay: Clinical assessment of AMD diagnosis and response to statin therapy; assay type: in vivo, human
Excerpt: AMD status has been determined in the art using a number of recognized grading systems, such as the Beckman AMD Classification System, the Age-Related Eye Disease Study (AREDS) Severity Scale, the AREDS Simplified Severity Scale, the International Classification and Grading System for AMD, and the Wisconsin Age-Related Maculopathy Grading System. When a determination of AMD status is required for a subject, the determination of AMD status is made using the Beckman AMD Classification System (Ferris et al. Ophthalmology 2013; 120:844-851).
Table 2 provides detailed information regarding patients 1 to 7, including the baseline diagnosis (diagnosis made when starting statin therapy), ending diagnosis (the diagnosis made on the date of the last referenced evaluation), the results of evaluations performed on each patient, and whether the patient responded to statin therapy. The dark adaptation data in this Example is the rod intercept time (or RI time) reported in minutes. In this Example, the dark adaptation data was collected using the AdaptDx® Dark Adaptometer (MacuLogix, Middletown, PA) running its standard Extended Test protocol. […] Data is automatically analyzed by the AdaptDx Dark Adaptometer to provide an RI time based on recovery to a criterion sensitivity level of 5×10^−3 scotopic cd/m^2. […] The visual acuity data was collected using a standard Snellen or ETDRS eye chart with the results presented using the standard 20/20 vision scale. Drusen resolution was determined by evaluation of fundus and OCT imaging by qualified clinicians experienced in AMD evaluation. Fundus and OCT imaging data was collected using the Heidelberg Engineering Spectralis® SD-OCT (Heidelberg, Germany) or the Karl Zeiss Meditec Cirrus® HD-OCT (Jena, Germany), in both cases running standard protocols with automated data analysis performed by the instruments.
The baseline diagnosis and ending diagnosis are the result of clinical assessment by qualified clinicians experienced in evaluation of AMD patients. The clinical assessment was carried out utilizing standard ophthalmic testing, such as, but not limited to, slit-lamp biomicroscopy (including looking for evidence of drusen and pigmentary changes), fundus and OCT imaging (including looking for evidence of drusen and pigmentary changes and calculation of retinal volume and retinal thickness), and testing with a Snellen or ETDRS eye chart (including looking for visual acuity changes that might indicate a change in disease status). Dark adaptation results were not used in the clinical assessment of the baseline or ending diagnosis.
Patients 1, 3-5 and 7 were determined to be non-responders to statin treatment as the initial diagnosis was unchanged after treatment and clinical evaluation. […] For patient 2, RI time improved by 1.67 minutes OD and 2.60 minutes OS agreeing with the clinical assessment of a response to statin therapy (i.e., improving clinically). Patient 6 could not be clearly classified as a responder or non-responder to statin treatment. […] For patient 6, RI time decreased by 2.2 minutes OD, agreeing with the initial clinical signs of a response to statin therapy.

In the case of CC(C)c1c(C(=O)Nc2ccccc2)c(-c2ccccc2)c(-c2ccc(F)cc2)n1CC[C@@H](O)C[C@@H](O)CC(=O)O [atorvastatin], the “Self-reported change in contrast sensitivity” value ([1]; Example 1: adult female, oral atorvastatin increasing to 80 mg per day over six months, no objective testing) is reported as “improvement in contrast sensitivity”, the “Self-reported change in dark adaptation” value ([1]; Example 2: adult person, oral atorvastatin 10 to 80 mg per day for 23 months, month 7, confirmed at months 15 and 22, no objective testing) is reported as “improvement in dark adaptation” and the Diagnosis ([2]; Patient #1, atorvastatin 20 to 80 mg/day from July 2013, OD, month 0 (July 2013), baseline) is reported as “Intermediate AMD”. For the same compound, the Diagnosis ([2]; Patient #1, atorvastatin 20 to 80 mg/day from July 2013, OS, month 0 (July 2013), baseline) was “Intermediate AMD”, the Diagnosis ([2]; Patient #1, atorvastatin 20 to 80 mg/day, OD, month 60 (July 2018), ending diagnosis) was “Intermediate AMD” and the Diagnosis ([2]; Patient #1, atorvastatin 20 to 80 mg/day, OS, month 60 (July 2018), ending diagnosis) was “Intermediate AMD”. For the same compound, the Responder ([2]; Patient #1, atorvastatin 20 to 80 mg/day, month 60 (July 2018)) was “No”, the Diagnosis ([2]; Patient #2, atorvastatin 80 mg/day from January 2013, OD, month 0 (January 2013), baseline) was “Intermediate AMD” and the Diagnosis ([2]; Patient #2, atorvastatin 80 mg/day from January 2013, OS, month 0 (January 2013), baseline) was “Intermediate AMD”. For the same compound, the Diagnosis ([2]; Patient #2, atorvastatin 80 mg/day, OD, month 66 (July 2018), ending diagnosis) was “Early AMD”, the Diagnosis ([2]; Patient #2, atorvastatin 80 mg/day, OS, month 66 (July 2018), ending diagnosis) was “Early AMD” and the Responder ([2]; Patient #2, atorvastatin 80 mg/day, month 66 (July 2018)) was “Yes”. The Diagnosis ([2]; Patient #3, atorvastatin 80 mg/day from October 2016, OD, month 0 (October 2016), baseline) was “Late AMD (CNV)”, the Diagnosis ([2]; Patient #3, atorvastatin 80 mg/day, OD, month 20 (June 2018), ending diagnosis) was “Late AMD (CNV)” and the Responder ([2]; Patient #3, atorvastatin 80 mg/day, month 20 (June 2018)) was “No”. For the same compound, the Diagnosis ([2]; Patient #4, atorvastatin 80 mg/day from May 2018, OD, month 0 (May 2018), baseline) was “Late AMD (GA)”, the Diagnosis ([2]; Patient #4, atorvastatin 80 mg/day from May 2018, OS, month 0 (May 2018), baseline) was “Intermediate AMD” and the Diagnosis ([2]; Patient #4, atorvastatin 80 mg/day, OD, month 4 (September 2018), ending diagnosis) was “Late AMD (GA)”. For the same compound, the Diagnosis ([2]; Patient #4, atorvastatin 80 mg/day, OS, month 4 (September 2018), ending diagnosis) was “Intermediate AMD”, the Responder ([2]; Patient #4, atorvastatin 80 mg/day, month 4 (September 2018)) was “No” and the Diagnosis ([2]; Patient #5, atorvastatin 80 mg/day (suspended January 2015-February 2016), then 20 mg/day, pravastatin 20 mg/day from April 2018, OD, month 52 (June 2018), ending diagnosis) was “Intermediate AMD”. For the same compound, the Diagnosis ([2]; Patient #5, atorvastatin 80 mg/day (suspended January 2015-February 2016), then 20 mg/day, pravastatin 20 mg/day from April 2018, OS, month 52 (June 2018), ending diagnosis) was “Intermediate AMD”, the Responder ([2]; Patient #5, atorvastatin 80 mg/day (suspended January 2015-February 2016), then 20 mg/day, pravastatin 20 mg/day from April 2018, month 52 (June 2018)) was “No” and the Diagnosis ([2]; Patient #5, atorvastatin 80 mg/day from January 2014, OD, month 0 (January 2014), baseline) was “Intermediate AMD”. For the same compound, the Diagnosis ([2]; Patient #5, atorvastatin 80 mg/day from January 2014, OS, month 0 (January 2014), baseline) was “Intermediate AMD”, the Diagnosis ([2]; Patient #6, atorvastatin 80 mg/day from November 2017, OD, month 0 (November 2017), baseline) was “Intermediate AMD” and the Diagnosis ([2]; Patient #6, atorvastatin 80 mg/day from November 2017, OS, month 0 (November 2017), baseline) was “Intermediate AMD”. For the same compound, the Diagnosis ([2]; Patient #6, atorvastatin 80 mg/day, OD, month 9 (August 2018), ending diagnosis) was “Intermediate AMD”, the Diagnosis ([2]; Patient #6, atorvastatin 80 mg/day, OS, month 9 (August 2018), ending diagnosis) was “Intermediate AMD” and the Responder ([2]; Patient #6, atorvastatin 80 mg/day, month 9 (August 2018)) was “Maybe”. For the same compound, the Diagnosis ([2]; Patient #7, atorvastatin 10 to 20 mg/day from April 2016, OD, month 0 (April 2016), baseline) was “Intermediate AMD”, the Diagnosis ([2]; Patient #7, atorvastatin 10 to 20 mg/day from April 2016, OS, month 0 (April 2016), baseline) was “Intermediate AMD” and the Diagnosis ([2]; Patient #7, atorvastatin 10 to 20 mg/day, OD, month 27 (July 2018), ending diagnosis) was “Intermediate AMD”. For the same compound, the Diagnosis ([2]; Patient #7, atorvastatin 10 to 20 mg/day, OS, month 27 (July 2018), ending diagnosis) was “Intermediate AMD” and the Responder ([2]; Patient #7, atorvastatin 10 to 20 mg/day, month 27 (July 2018)) was “No”.
